Assay results published in US20130261077A1 (priority 2012, published 2013).

target: T1, FimH-CRD (Escherichia coli, UniProt P08191); assay: Competitive binding assay by fluorescence polarization, assay 1 (compounds prepared by manual serial dilution)
T1 construct: The first 177 amino acids of the FimH protein; thrombin tag (printed as 'fusion protein with thrombin') (cleaved yes); made in house; host or cells: bacteria (pET21b plasmid)
Description: The first 177 amino acids of the FimH protein were expressed as a fusion protein with thrombin in a pET21b plasmid in bacteria. This FimH protein sequence contains the carbohydrate recognition domain (CRD) and shall be termed FimH-CRD. Following bacterial expression of the protein, the FimH-CRD protein was purified to homogeneity and the thrombin tag removed by protease cleavage. A competitive binding assay by fluorescence polarization was performed using 5 nM of the Alexa 647 mannoside probe and 60 nM of the FimH-CRD. The samples are assayed in a low volume 384 well microtiter plate in a final volume of 20 μl. The final assay buffer conditions are the following, 50 mM Tris-Cl, ph 7.0, 100 mM NaCl, 1 mM EDTA, 5 mM β-mercaptoethanol, 0.05% BSA and 2.5% DMSO. Two assays are performed for FimH, termed assay 1 or assay 2. The assay conditions are the same for both assays except the following: assay 1 has compounds prepared by manual dilution in a serial dilution factor with 12-point dose response while assay 2 has compounds prepared by a robotics system also through a serial dilution factor (12 point dose response) and initially prepared in duplicate in 384 well-Corning polypropylene round bottom plates. The assay 2 plates have compound which is then frozen and must be thawed prior to use. Initially the Alexa 647 probe and the FimH-CRD are added to the assay buffer and then 0.5 μl of test compound (assay 1 or 2) between 0.4 nM to 75 μM final concentration are added (12 point titration with 3-fold serial dilution). Control wells for the Alexa 647 probe are prepared with the same conditions except for the addition of the FimH-CRD protein. Plates are then incubated for 5 hrs at room temperature in the dark and under humid conditions to prevent drying. Plates are read using the SpectraMax Paradigm multi-mode plate reader and the appropriate fluorescent polarization detection cartridge (Alexa-647).
Alexa 647 mannoside probe is prepared using the similar procedure reported for FAM mannoside (Han, Z. et. al., 2010, J. Med. Chem., 53, 4779) and is described in the scheme below.
To a blue colored stirred solution of (2S,3S,4S,5S,6R)-2-(4-aminobutoxy)-6-(hydroxymethyl)tetrahydropyran-3,4,5-triol (2.21 mg, 0.009 mmol) and the (2E)-2-[(2E,4E)-5-[3,3-dimethyl-5-sulfonato-1-(3-sulfonatopropyl)indol-1-ium-2-yl]penta-2,4-dienylidene]-3-[6-(2,5-dioxopyrrolidin-1-yl)oxy-6-oxo-hexyl]-3-methyl-1-(3-sulfonatopropyl)indoline-5-sulfonate (Potassium Ion (3)) (4.9 mg, 0.0044 mmol) in DMF (44 μL) is added Et3N (5.4 mg, 7.0 μL, 0.053 mmol) at RT. The solution is stirred at room temperature over night, concentrated, dissolved in water and purified on 12 g C-18 silica gel cartridge on Isolera system using acetonitrile in water (0 to 40%, 10 CV) and followed by lyophilization to afford Alexa 647 mannoside probe (3.3 mg, 34%) as deep blue solid.
The Kd values of the compounds are determined from dose response curves using twelve concentrations per compound in duplicate. Curves are fitted to data points using Fluorescence Polarization competitive displacement analysis, and Kds are interpolated from the resulting curves using GraphPad Prism software, version […] (GraphPad software Inc., San Diego, Calif., USA).

T1 sequence (P08191 22-177): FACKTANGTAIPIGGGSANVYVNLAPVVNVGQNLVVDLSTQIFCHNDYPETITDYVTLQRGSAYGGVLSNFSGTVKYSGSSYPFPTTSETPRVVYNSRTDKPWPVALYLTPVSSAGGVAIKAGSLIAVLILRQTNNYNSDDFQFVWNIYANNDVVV

Compound | IC50 [nM] | Kd [nM]
CS(=O)(=O)c1ccc(-c2cccc([C@H]3O[C@H](CO)[C@@H](O)[C@H](O[C@H]4O[C@H](CO)[C@@H](O)[C@H](O)[C@@H]4O)[C@@H]3O)c2)cc1 [Compound 276, (2R,3S,4S,5S,6R)-2-[(2R,3R,4R,5R,6R)-3,5-dihydroxy-2-(hydroxymethyl)-6-[3-(4-methylsulfonylphenyl)phenyl]tetrahydropyran-4-yl]oxy-6-(hydroxymethyl)tetrahydropyran-3,4,5-triol] | 49 | 11.1 ± 3.4
Cc1nnc(-c2ccc(C#Cc3cccc([C@H]4O[C@H](CO)[C@@H](O)[C@H](O)[C@@H]4O)c3)cc2)o1 [Compound 133, (2R,3S,4R,5S,6R)-2-(hydroxymethyl)-6-[3-[2-[4-(5-methyl-1,3,4-oxadiazol-2-yl)phenyl]ethynyl]phenyl]tetrahydropyran-3,4,5-triol] | – | 6.1 ± 1.4
Cc1cc(NC(=O)c2cccc([C@H]3O[C@H](CO)[C@@H](O)[C@H](O)[C@@H]3O)c2)n(Cc2ccccc2)n1 [Compound 24, N-(1-benzyl-3-methyl-1H-pyrazol-5-yl)-3-((2R,3S,4R,5S,6R)-3,4,5-trihydroxy-6-(hydroxymethyl)tetrahydro-2H-pyran-2-yl)benzamide] | 243 | 56.7 ± 0.2
OCc1ccccc1-c1cccc([C@H]2O[C@H](CO)[C@@H](O)[C@H](O)[C@@H]2O)c1 [Compound 13, (2R,3S,4R,5S,6R)-2-(hydroxymethyl)-6-(2′-(hydroxymethyl)-[1,1′-biphenyl]-3-yl)tetrahydro-2H-pyran-3,4,5-triol] | 195 | 39.9 ± 23.6
COc1ccc([C@H]2O[C@H](CO)[C@@H](O)[C@H](O[C@H]3O[C@H](CO)[C@@H](O)[C@H](O)[C@@H]3O)[C@@H]2O)cc1O [Compound 289, (2R,3S,4S,5S,6R)-2-[(2R,3R,4R,5R,6R)-3,5-Dihydroxy-2-(3-hydroxy-4-methoxy-phenyl)-6-(hydroxymethyl)tetrahydropyran-4-yl]oxy-6-(hydroxymethyl)tetrahydropyran-3,4,5-triol] | 175 | 162 ± 241
OC[C@H]1O[C@H](c2cccc(-c3ccc4[nH]ccc4c3)c2)[C@@H](O)[C@@H](O)[C@@H]1O [Compound 15] | 306 | 48.2 ± 47.7
CCCc1ccc(NC(=O)c2cccc([C@H]3O[C@H](CO)[C@@H](O)[C@H](O)[C@@H]3O)c2)cc1 [Compound 31, N-(4-propylphenyl)-3-((2R,3S,4R,5S,6R)-3,4,5-trihydroxy-6-(hydroxymethyl)tetrahydro-2H-pyran-2-yl)benzamide] | 84 | 22.8 ± 0.9
CNC(=O)c1ccc(Oc2cccc([C@H]3O[C@H](CO)[C@@H](O)[C@H](O)[C@@H]3O)c2)cc1 [Compound 3, N-methyl-4-[3-[(2R,3S,4R,5S,6R)-3,4,5-trihydroxy-6-(hydroxymethyl)tetrahydropyran-2-yl]phenoxy]benzamide] | 39 | 7.2 ± 1.1
CCCOc1ccc(F)c(-c2cccc([C@H]3O[C@H](CO)[C@@H](O)[C@H](O)[C@@H]3O)c2)c1 [Compound 19] | 52 | 6.2 ± 1.2
OC[C@H]1O[C@H](c2cccc(Oc3ccc(F)cc3)c2)[C@@H](O)[C@@H](O)[C@@H]1O [Compound 57, (2R,3S,4R,5S,6R)-2-[3-(4-fluorophenoxy)phenyl]-6-(hydroxymethyl)tetrahydropyran-3,4,5-triol] | 76 | 13.2 ± 0.2
CNC(=O)c1cc(C(=O)NC)cc(-c2cccc([C@H]3O[C@H](CO)[C@@H](O)[C@H](O)[C@@H]3O)c2)c1 [Compound 63, N^3,N^5-dimethyl-3′-((2R,3S,4R,5S,6R)-3,4,5-trihydroxy-6-(hydroxymethyl)tetrahydro-2H-pyran-2-yl)-[1,1′-biphenyl]-3,5-dicarboxamide] | 19 | 25.4 ± 14.4
OC[C@H]1O[C@H](c2cccc(C#Cc3cc(Cl)cc(Cl)c3)c2)[C@@H](O)[C@@H](O)[C@@H]1O [Compound 92, (2R,3S,4R,5S,6R)-2-[3-[2-(3,5-Dichlorophenyl)ethynyl]phenyl]-6-(hydroxymethyl)tetrahydropyran-3,4,5-triol] | – | 24.9 ± 11.3
OC[C@H]1O[C@H](O[C@@H]2[C@H](O)[C@@H](c3cccc(Oc4ccc(F)cc4)c3)O[C@H](CO)[C@H]2O)[C@@H](O)[C@@H](O)[C@@H]1O [Compound 270, (2R,3S,4S,5S,6R)-2-[(2R,3R,4R,5R,6R)-2-[3-(4-Fluorophenoxy)phenyl]-3,5-dihydroxy-6-(hydroxymethyl)tetrahydropyran-4-yl]oxy-6-(hydroxymethyl)tetrahydropyran-3,4,5-triol] | 54 | 14.4 ± 2.6
OC[C@H]1O[C@H](c2ccc(O)cc2)[C@@H](O)[C@@H](O)[C@@H]1O [Compound 46, (2R,3S,4R,5S,6R)-2-(hydroxymethyl)-6-(4-hydroxyphenyl)tetrahydropyran-3,4,5-triol] | 148 | 28.2 ± 13.3
OC[C@H]1O[C@H](O[C@@H]2[C@H](O)[C@@H](c3ccc(O)cc3)O[C@H](CO)[C@H]2O)[C@@H](O)[C@@H](O)[C@@H]1O [Compound 266, (2R,3S,4S,5S,6R)-2-[(2R,3R,4R,5R,6R)-3,5-Dihydroxy-2-(hydroxymethyl)-6-(4-hydroxyphenyl)tetrahydropyran-4-yl]oxy-6-(hydroxymethyl)tetrahydropyran-3,4,5-triol] | 59 | 21.3 ± 6.2
O=C(Nc1ccc2ncccc2c1)c1cccc([C@H]2O[C@H](CO)[C@@H](O)[C@H](O)[C@@H]2O)c1 [Compound 26, N-(quinolin-6-yl)-3-((2R,3S,4R,5S,6R)-3,4,5-trihydroxy-6-(hydroxymethyl)tetrahydro-2H-pyran-2-yl)benzamide] | 100 | 16.8 ± 7.8
CNC(=O)c1cccc(Oc2cccc([C@H]3O[C@H](CO)[C@@H](O)[C@H](O[C@H]4O[C@H](CO)[C@@H](O)[C@H](O)[C@@H]4O)[C@@H]3O)c2)c1 [Compound 269, 3-[3-[(2R,3R,4R,5R,6R)-3,5-Dihydroxy-6-(hydroxymethyl)-4-[(2R,3S,4S,5S,6R)-3,4,5-trihydroxy-6-(hydroxymethyl)tetrahydropyran-2-yl]oxy-tetrahydropyran-2-yl]phenoxy]-N-methyl-benzamide] | 10 | < 5
CNC(=O)c1ccc(-c2ccc([C@H]3O[C@H](CO)[C@@H](O)[C@H](O)[C@@H]3O)cc2)cc1 [Compound 296, N-methyl-4′-((2R,3S,4R,5S,6R)-3,4,5-trihydroxy-6-(hydroxymethyl)tetrahydro-2H-pyran-2-yl)-[1,1′-biphenyl]-4-carboxamide] | – | 5 ± 0.4
O=C(NCc1ccccc1)c1cccc([C@H]2O[C@H](CO)[C@@H](O)[C@H](O)[C@@H]2O)c1 [Compound 33, N-benzyl-3-((2R,3S,4R,5S,6R)-3,4,5-trihydroxy-6-(hydroxymethyl)tetrahydro-2H-pyran-2-yl)benzamide] | 76 | 28.9 ± 14.5
CNC(=O)c1ccc(Oc2cccc([C@H]3O[C@H](CO)[C@@H](O)[C@H](O[C@H]4O[C@H](CO)[C@@H](O)[C@H](O)[C@@H]4O)[C@@H]3O)c2)cc1 [Compound 267, 4-[3-[(2R,3R,4R,5R,6R)-3,5-Dihydroxy-6-(hydroxymethyl)-4-[(2R,3S,4S,5S,6R)-3,4,5-trihydroxy-6-(hydroxymethyl)tetrahydropyran-2-yl]oxy-tetrahydropyran-2-yl]phenoxy]-N-methyl-benzamide] | 68 | 12.8 ± 8
COC(=O)Cc1cccc(Oc2ccc([C@H]3O[C@H](CO)[C@@H](O)[C@H](O)[C@@H]3O)cc2)c1 [Compound 293, methyl 2-(3-(4-((2R,3S,4R,5S,6R)-3,4,5-trihydroxy-6-(hydroxymethyl)tetrahydro-2H-pyran-2-yl)phenoxy)phenyl)acetate] | – | 9 ± 2
OC[C@H]1O[C@H](c2cccc(Oc3ccccc3)c2)[C@@H](O)[C@@H](O)[C@@H]1O [Compound 59, (2R,3S,4R,5S,6R)-2-(hydroxymethyl)-6-(3-phenoxyphenyl)tetrahydropyran-3,4,5-triol] | 26 | 6.3 ± 0.9
